Experimental data published in PMC8901748, “A novel prostaglandin E receptor 4 (EP4) small molecule antagonist induces articular cartilage regeneration” (Cell Discovery, 2022).

Assays:
[1] = test system: articular cartilage defect; assay: Microfracture (MF) surgery-induced cartilage defect (CD) rat model; assay type: in vivo, Sprague-Dawley (SD) rats; settings: hydrogel containing compound; for Cartilage regeneration, appearance of the defect: 6 weeks of post-surgery
Description: Ca(NO3)2·4H2O was obtained from Sinopharm Chemical Reagent. Waxy starch (amylopectin more than 90%) was purchased from Qinhuangdao Lihua Starch. For the preparation of starch hydrogels, a fixed water-to-starch mass ratio of 5 was used, and the crosslinker Ca(NO3)2·4H2O was dissolved in the starch solution. The mixture was stirred at 60 °C for 1 h to obtain a viscous gel. The starch hydrogel prepared with Ca(NO3)2·4H2O and Waxy starch was named as 14 Gel. The hydrogel is sterilized by UV for 30 min and then used. HL-43 and Grapiprant were each dissolved in the DMSO solvent (100 mM). Compound/14 Gel was prepared by mixing the solutions at a weight ratio of 1/10 (w/w).
Thirty-six male Sprague-Dawley (SD) rats (280–300 g) were randomized into three groups (each group n = 4 rats for each time point), […] were used as controls (n = 4). After anesthetizing with 3.5% chloral hydrate (10 ml/kg), the rats were fixed on the operating table in supine position and the skin was prepared and disinfected. A 2 cm longitudinal incision along the medial margin of the patella of the right knee was made with a scalpel and then the capsule was open to expose the articular cartilage surface. A manual drill with a diameter of 2 mm was used to drill holes in the femoral intercondylar fossa of the rat (2 mm × 2 mm). After washing with saline, the gauze was pressed and 100 μl 14 Gel containing appropriate drugs or vehicle were injected. After the injection, the compression flexes and compresses were applied several times to spread the gel throughout the knee joint. The ligaments and skin were sutured. After 2, 4, and 6 weeks, the repaired articular cartilage was histologically analyzed and correlation was scored.

[2] = test system: articular cartilage defect; assay: DMM surgery-induced CD mouse model; assay type: in vivo, mice (strain C57/BL/6); settings: Grapiprant 30 mg/kg, HL-43 10 mg/kg, compared to vehicle
Text: EP4^f/f mice[67] were crossed with the Col2-cre strain to generate Col2-cre; EP4^f/f (EP4^Col2) mice, or were crossed with Aggrecan-creERT2[68] mice to generate EP4^f/f; Aggrecan-CreERT2 (EP4^AcanERT2) mice. Mice were maintained at the animal center of East China Normal University. All mouse experiments were approved by Ethics Committee at East China Normal University. Mice of the same genetic background were generated and raised under identical conditions. Sex-matched littermate mice were compared. For the DMM surgery-induced CD mouse model, WT mice (strain C57/BL/6) or EP4^Acan mice were used, n = 5 for each group. DMM surgery was carried out as previous described using 10-week-old male mice[69],[70]; while Sham-operated mice were used as controls. Knee joints were collected for histological analysis 6 or 8 weeks after surgery. Osteoarthritis Research Society International (OARSI) histopathology grading system was used to evaluate the sections, six sections of the articular cartilage of each mouse were evaluated. Synovitis was assessed by the synovitis score. Therapy with oral EP4 inhibitors was initiated one day after surgery and continued for 8 weeks, n = 8 for each group. EP4 inhibitors and Celecoxib were dissolved in carboxymethylcellulose sodium which is prepared at the concentration of 0.5%, and vehicle contained carboxymethylcellulose sodium alone. The vehicle, Celecoxib, Grapiprant, and HL-43 were delivered to mice at indicated doses daily by gavage, Celecoxib purchased from damas-beta (29322B), Grapiprant was purchased from Yuduobio, Shanghai, all other EP4 antagonists were synthesized by Dr. Hankun Zhang’s lab.
Von Frey nylon filaments were used to test the hind-paw reflex sensitivity to punctate static mechanical stimuli. Mice were habituated to the wire mesh bottom cages for 30 min before the test. von Frey filaments (Aesthesio von Frey Kit, Ugo Basile, Varese, Italy) were applied from underneath the mouse in ascending order to the mid-plantar surface of the hind paws. If withdrawal response was not induced, the next level of von Frey hair was applied until at least six withdrawals occurred in ten stimuli. This minimal force required to elicit 50% positive response was recorded as the paw withdrawal threshold[73],[74].
The paw withdrawal latency (PWL) and threshold (PWT) of thermal hyperalgesia were measured using the Ugo-Basile 37370 plantar test (Comerio, Italy). The mice were placed on a glass plate of constant temperature for 30 min before each test. Thermal thresholds of the ipsilateral hind paws were assessed three times with a 10 min interval between trials. The time(s) from irradiation to paw withdrawal was recorded as the thermal withdrawal latency. […]

For CCc1nc2c(C)nc(C)cc2n1-c1ccc(CCNC(=O)NS(=O)(=O)c2ccc(C)cc2)cc1 [Grapiprant], the “Cartilage regeneration, appearance of the defect” value [1] was “still visible”, the “Expression of Col2, Acan, and Sox9 in knee joint” value [2] was “increased” and the “Expression of Mmp13 and ColX in knee joint” value [2] was “decreased”.

With C[C@H](NC(=O)c1c(-c2ccccc2)nnn1CCOc1ccc(F)cc1)c1ccc(C(=O)O)cc1 [HL-43] the “Cartilage repair, ICRS Macroscopic and ICRS Visual Histological scores” value ([1]; 4 weeks after MF surgery) was “mild effects on cartilage repair”, the “Cartilage regeneration, appearance of the defect” value [1] was “surfaces were smooth and cartilage layers were regenerated” and the “Expression of Col2, Acan, and Sox9 in knee joint” value [2] was “increased”. The “Expression of Mmp13 and ColX in knee joint” value [2] was “decreased”.
